According to patent publication US9763940B2, “Therapeutic use of P75 receptor antagonists” (Sanofi, priority 2011, dated 2017):
Where a name gives a salt, the structure may show the parent alone.

Experiments:
[1] = system: SHR male rats, characterized by overactive bladder (OAB); test: Cystometry after acute oral treatment in SHR rats with spontaneous overactive bladder; assay type: in vivo, rat; details: % of control period, mean±SEM
Experimental: (§1) Male adult SHR/N Ico rats (250 g; Charles River Italy), were housed 7 days prior to the surgery with free access to standard chow and water. Animals were used in accordance with sanofi international ethical code and the international principles governing the care and treatment of laboratory animals, (E.E.E Council Directive 86/609, DJL358, 1 Cec. 12, 1987) in a fully accredited AAALAC facility.
(§2) A lower midline abdominal incision was performed under general anesthesia with 2-3% isoflurane using aseptic techniques. Their body temperature was maintained at 37° C. using a homeothermic blanket. Polyethylene tubing was inserted into the dome of the bladder and secured in place with a 6-0 nylon purse-string suture. The distal end of the tubing was sealed, tunneled subcutaneously, and externalized at the back of the neck, out of the animal's reach. At the moment of the surgery animals were 16 weeks old.
(§3) After one week from surgery, animals were placed in a Small Animal Cystometry Lab Station (MED Associates, St. Albans, Vt.) for urodynamic measurements. Prior to the start of recording the bladder was emptied and the catheter was connected via a T-tube to a pressure transducer and microinjection pump. Isotonic saline (0.9% NaCl at room temperature) was infused into the bladder at a rate of 10 ml per hour. An analytical balance beneath the wire-bottomed animal cage measured the amount of urine voided during continuous cystometry. A single cystometrogram is defined as the simultaneous recording of intravesical pressure, infused volume and voided volume during a single filling-voiding cycle. At least 4 reproducible micturition cycles are recorded (basal period) after the initial stabilization period of 25 to 30 minutes, using MED-CMG software (Catamount Research &Development Company).
Then, vehicle or compounds were administered orally at 2 ml/kg.
Due to kinetic profile of compounds, urodynamic assessment was performed 1 h after treatment and at least 4 reproducible micturition cycles were recorded.
The cystometrograms are analyzed using a specific software, SOF-552 cystometry data analysis.
The following endpoints have been considered (FIG. 1): • 1. Intercontraction intervals (sec) (ICI)—Time between micturition events (micturition interval) • 2. Threshold pressure (mmHg) (TP)—Bladder pressure immediately prior to micturition • 3. Maximum bladder pressure (mmHg) (Max P)—Highest bladder pressure associated with voiding • 4. Minimum bladder pressure (mmHg) (Min P)—Lowest bladder pressure during bladder filling • 5. Infused volume (μl) (Inf. Vol)—Volume of saline infused during the micturition cycle • 6. Average bladder pressure (mmHg) (Aver P)—Average bladder pressure during bladder filling Exclusion Criteria
In order to limit the impact of inter-group or intra-group variability, all data were expressed as % of control period (100%), as mean±standard error of mean (SEM) and were averaged per group of treatment. A one way analysis of variance (ANOVA), followed by Newman-Keuls' test or Dunnett's test, were used. A probability value of p<0.05 was regarded as significant.
Effects of an Acute Treatment with p75 Antagonists on Urodynamic Parameters in SHR Rats Characterized by Spontaneous Overactive Bladder (OAB)
• Vehicle: 0.5% Polysorbate 80 (PS80) solution in buffered methylcellulose (MC 0.6%) • Compound n°1 at 10 mg/kg: suspension (0.5% PS80 plus MC 0.6%) • Compound n°2 at 3, 10, 30 mg/kg: suspension (0.5% PS80 plus MC 0.6%) • Compound n°3 at 10 mg/kg: suspension (0.5% PS80 plus MC 0.6%) • Compound n°4 at 10 mg/kg: suspension (0.5% PS80 plus MC 0.6%) Experimental Design:
In order to investigate the role of compounds according to the invention in the micturition pathway, 5 groups of 4-12 rats are used: • Group 1, Vehicle per os (po) (n=10) • Group 2, Compound n°1 at 10 mg/kg po (n=12) • Group 3, Compound n°2 at 10 mg/kg po (n=6) • Group 4, Compound n°3 at 10 mg/kg po (n=4) • Group 5, Compound n°4 at 10 mg/kg po (n=5) […]

[2] = system: SHR male rats, characterized by overactive bladder (OAB); test: Cystometry after one-week chronic treatment in SHR rats with spontaneous overactive bladder; assay type: in vivo, rat; details: 10 mg/kg po for 7 days
Experimental: as §1, §2, §3
The cystometrograms are analyzed using a specific software, SOF-552 cystometry data analysis. […]
In order to limit the impact of inter-group or intra-group variability, all data were expressed as % of control period (100%), as mean±standard error of mean (SEM) and were averaged per group of treatment. […]

[3] = 10 mg/kg po, 1 h after treatment, FIG. 2
[4] = 10 mg/kg po, 1 h after treatment, FIG. 3

Structure (SMILES): O=C(CN1CC2CCC(C1)N2c1ncc(F)cn1)N1CC=C(c2ccc(Cl)c(C(F)(F)F)c2)CC1 [compound n°1, 1-[4-(4-chloro-3-trifluoromethyl-phenyl)-3,6-dihydro-2H-pyridin-1-yl]-2-[8-(5-fluoro-pyrimidin-2-yl)-3,8-diaza-bicyclo[3.2.1]oct-3-yl]-ethanone]
- Intercontraction intervals (ICI) [1, 3]: 195.5±15.4%
- Infused volume (bladder capacity) [1, 4]: 194.9±15.3%

Structure (SMILES): C[C@@H]1CN(c2ccc(C(=O)O)cn2)C[C@H](C)N1CC(=O)N1CCc2nn(-c3ccccc3)cc2C1 [compound n°2, 6-{(3S,5R)-3,5-Dimethyl-4-[2-oxo-2-(2-phenyl-2,4,6,7-tetrahydropyrazolo[4,3-c]pyridin-5-yl)ethyl]piperazin-1-yl}nicotinic acid hydrochloride]
- Intercontraction intervals (ICI) [1, 3]: 199.7±28.5%
- Infused volume (bladder capacity) [1, 4]: 198.9±28.3%
- Intercontraction intervals (ICI) ([1]; dose response, 3 mg/kg po, FIG. 4): 160.9±21.8%
- Infused volume (bladder capacity) ([1]; dose response, 3 mg/kg po, FIG. 5): 160.8±21.7%
- Intercontraction intervals (ICI) ([1]; dose response, 10 mg/kg po, FIG. 4): 199.7±28.5%
- Infused volume (bladder capacity) ([1]; dose response, 10 mg/kg po, FIG. 5): 198.9±28.3%
- Intercontraction intervals (ICI) ([1]; dose response, 30 mg/kg po, FIG. 4): 210.5±24.7%
- Infused volume (bladder capacity) ([1]; dose response, 30 mg/kg po, FIG. 5): 209.9±24.5%
- Effect on micturition pressure parameters ([2]; SHR rats): no effect
- Intercontraction intervals (ICI) ([2]; cystometry 24 h after last treatment, % of control values, mean±SEM, FIG. 6): 173.8±21.1%
- Infused volume (bladder capacity) ([2]; cystometry 24 h after last treatment, % of control values, mean±SEM, FIG. 7): 173.7±21.1%

Structure (SMILES): C[C@@H]1CN(c2ccc(C(=O)O)cn2)C[C@H](C)N1CC(=O)N1CC=C(c2cccc3ccoc23)CC1 [compound n°3, 6-{(3S,5R)-4-[2-(4-benzofuran-7-yl-3,6-dihydro-2H-pyridin-1-yl)-2-oxoethyl]-3,5-dimethylpiperazin-1-yl}nicotinic acid]
- Intercontraction intervals (ICI) [1, 3]: 167.2±20.3%
- Infused volume (bladder capacity) [1, 4]: 167.14±20%

Structure (SMILES): O=C(CN1CC2CCC(C1)N2c1cccnc1)N1CCc2nn(-c3ccccc3)cc2C1 [compound n°4, 1-(2-phenyl-2,4,6,7-tetrahydropyrazolo[4,3-c]pyridin-5-yl)-2-(8-pyridin-3-yl-3,8-diazabicyclo[3.2.1]oct-3-yl)ethanone]
- Intercontraction intervals (ICI) [1, 3]: 186.3±26.9%
- Infused volume (bladder capacity) [1, 4]: 186.2±26.9%
